Data published in ChEMBL document CHEMBL3507680, “University of Dundee, Gates Library screen for HepG2 cell viability”.

Experiment: Human HepG2 cell viability assay in 384 well format
Assay type: toxicity, cell-based
Design: dose 125 nL, time 70.5 hour; cytotoxicity at 70.5 h: concentration not given beside the values
Details: HepG2 cells, read-out: Inhibition

SMILES | cytotoxicity at 70.5 h [%]
Cc1ccc(-c2nc(CN3CCOC(Cn4cncn4)C3)cs2)o1 (stereo not given) | -6.85
CNC(=O)CCN1CCN(C(C)c2ccc(Cl)cc2)CC1 (stereo not given) | -6.21
Cc1ccc(CNCCS(=O)(=O)N2CCOCC2)cc1C | -6.06
CC(c1ccc(Cl)cc1)N1CCN(CCCS(N)(=O)=O)CC1 (stereo not given) | 35.8
Cn1cc(C(=O)NCc2ccc(N3CCNC(=O)C3)c(F)c2)cn1 | -4.04
Cc1nc(C)n(CC2CCCCN2CCCS(N)(=O)=O)n1 (stereo not given) | -5.16
Cc1cc(C)n(CC2CCCCN2CCCS(=O)(=O)N(C)C)n1 (stereo not given) | 1.93
CCOC(C)c1nc(CN2CCN(CC(F)F)CC2)cs1 (stereo not given) | -5.97
N#Cc1cccc(OCCN2CCCC(c3noc(C4CC4)n3)C2)c1 (stereo not given) | -5.39
Cc1cccc(NC(=O)NCC2(N3CCOCC3)CCSC2)c1 (stereo not given) | 3.35
CC1CCN(CCNC(=O)Nc2ccc(F)cc2Cl)CC1 | 9.06
CCC(CNC(=O)c1ccc(F)cc1F)N1CCc2ccccc2C1 (stereo not given) | -7.79
CCC(CNC(=O)c1cncc(Br)c1)N1CCc2ccccc2C1 (stereo not given) | -5.93
Cc1csc(CNC(=O)NCC(O)c2ccc(F)cc2F)n1 (stereo not given) | 5.96
Cc1csc(CNC(=O)NCC(O)c2ccc(F)c(F)c2)n1 (stereo not given) | 10.8
O=C(NCC1(N2CCOCC2)CCSC1)Nc1cn[nH]c1 (stereo not given) | -10.2
Cc1nc(CCNC(=O)NCC(O)c2cccc(Cl)c2)cs1 (stereo not given) | -7.03
CCN(Cc1ccco1)C(=O)NCc1nnc2n1CCCCC2 | 5.47
O=C(CN1C(=O)c2ccccc2CS1(=O)=O)c1ccccc1 | -6.1
CC(=O)c1cccc(OCCCC(=O)N(C)CC(N)=O)c1 | -7.52

SMILES | cytotoxicity at 70.5 h [%]
Cc1cc(S(=O)(=O)N2CCCN3CCCC3C2)ccc1F (stereo not given) | -9.81
Cc1cc(CNC(=O)NCCOc2ccc(F)c(F)c2)on1 | -6.89
NC(=O)c1cccc(CNC(=O)NCCOc2ccc(F)c(F)c2)c1 | -2.9
CN(Cc1ccco1)Cc1ccccc1CNC(=O)c1cnc[nH]1 | 13.3
COc1ccccc1OCC(=O)NS(=O)(=O)c1ccc(F)cc1F | -8.29
Nc1ccnc(CNc2cc(F)ccc2OCC2CCCO2)n1 (stereo not given) | -9.07
Fc1ccc(OCC2CCCO2)c(NCc2noc(C3CC3)n2)c1 (stereo not given) | -7.27
COc1ccc(F)cc1C(=O)Nc1nnc(C)s1 | 6.71
CCOC(=O)NC(CNC(=O)c1cc(Cl)ccn1)CC(C)C (stereo not given) | 5.7
CCOC(=O)NC(CNC(=O)c1cccnc1SC)CC(C)C (stereo not given) | 8.28
CCOC(=O)NC(CNC(=O)c1cccc(C)n1)CC(C)C (stereo not given) | 7.69
CC(C)c1cc(C(=O)N2CCN(Cc3ccco3)CC2)n[nH]1 | 32.7
O=C(NCCNc1ncccn1)c1cnc(-c2ccccc2)nc1 | -2.38
CCS(=O)(=O)NCCNC(=O)c1cnc(-c2ccccc2)nc1 | -8.98
N#Cc1ccc(CNC(=O)NC2CCN(CC(F)(F)F)C2)cc1 (stereo not given) | -5.15
c1ccc(NCc2ccc(Cn3ccnc3)cc2)nc1 | 41.7
Cc1cc(C(=O)Nc2cccn(Cc3ccc(F)cc3)c2=O)no1 | 0.798
CC(C)Nc1cccc(CNC(=O)N2CCCC2)c1 | -5.5
COC(=O)CN(C(=O)c1ccc(-n2ccnc2)cc1)C1CC1 | -1.73
COCCN(CCC#N)Cn1cc(Cl)cn1 | -2.01

SMILES | cytotoxicity at 70.5 h [%]
COCC(C)N(C)C(=O)c1ccc2nncn2c1 (stereo not given) | -2.4
CCc1cc(N2CCCC(c3noc(CC)n3)C2)ncn1 (stereo not given) | -5.13
Cn1cc(S(=O)(=O)NC(=O)C2(c3ccccc3)CCC2)cn1 | -4.68
CCOC1CCN(C(=O)c2csc(S(N)(=O)=O)c2)CC1 | -4.71
COCC(=O)Nc1ccc(Sc2nncn2C)c(Cl)c1 | 10.4
Cn1cnnc1Sc1ccc(NC(=O)C2CC2)cc1Cl | -9.39
Cc1cccc(C2(C(=O)NS(=O)(=O)c3cnn(C)c3)CCCC2)c1 | -1.9
CSCC(C)(O)CNc1cccc(F)c1C#N (stereo not given) | -15.5
Fc1ccc(OCCCN2CC(n3cccn3)C2)cc1 | -8.19
CCc1nc(C2CCCN(c3ncc(Br)cn3)C2)no1 (stereo not given) | -14.4
CCn1nc(C)c(S(=O)(=O)Nc2ccccc2C(=O)OC)c1C | 11.2
NS(=O)(=O)c1cc(C(=O)N2CCCCC2)cs1 | -4.34
CN1CC(Nc2nc3c(cnn3C(C)(C)C)c(=O)[nH]2)CCC1=O (stereo not given) | -2.42
CN(C)C(=O)c1ccc(OC2CCOCC2)cc1 | -15.1
C[S+]([O-])c1ccc(NC(=O)Cc2cccnc2)cc1F (stereo not given) | 11.1
CCOC1CCCN(C(=O)c2[nH]nc(C3CC3)c2Br)C1 (stereo not given) | -6.37
CCOC1CCCN(C(=O)c2[nH]nc(C(C)C)c2Br)C1 (stereo not given) | 11.3
COc1ccccc1C(C)(C)NCc1ccc(C)o1 | -5.83
COc1ccnc(NCC2CN(C3CC3)CCO2)n1 (stereo not given) | 10.1
CN(Cc1cscn1)C1CCN(C(=O)OC(C)(C)C)CC1 | 29.5
